Test results from patent US10428080B2, “TBK/IKK inhibitor compounds and uses thereof” (Merck Patent GmbH, priority 2015, dated 2019).
Where a name gives a salt, the structure may show the parent alone.

Tests used:
TBK1 = molecular target: T1, TBK1 (Homo sapiens, UniProt Q9UHD2); assay: TBK Biochemical Assay; settings: read-out: TBK1 IC50
T1 sequence (Q9UHD2 1-729): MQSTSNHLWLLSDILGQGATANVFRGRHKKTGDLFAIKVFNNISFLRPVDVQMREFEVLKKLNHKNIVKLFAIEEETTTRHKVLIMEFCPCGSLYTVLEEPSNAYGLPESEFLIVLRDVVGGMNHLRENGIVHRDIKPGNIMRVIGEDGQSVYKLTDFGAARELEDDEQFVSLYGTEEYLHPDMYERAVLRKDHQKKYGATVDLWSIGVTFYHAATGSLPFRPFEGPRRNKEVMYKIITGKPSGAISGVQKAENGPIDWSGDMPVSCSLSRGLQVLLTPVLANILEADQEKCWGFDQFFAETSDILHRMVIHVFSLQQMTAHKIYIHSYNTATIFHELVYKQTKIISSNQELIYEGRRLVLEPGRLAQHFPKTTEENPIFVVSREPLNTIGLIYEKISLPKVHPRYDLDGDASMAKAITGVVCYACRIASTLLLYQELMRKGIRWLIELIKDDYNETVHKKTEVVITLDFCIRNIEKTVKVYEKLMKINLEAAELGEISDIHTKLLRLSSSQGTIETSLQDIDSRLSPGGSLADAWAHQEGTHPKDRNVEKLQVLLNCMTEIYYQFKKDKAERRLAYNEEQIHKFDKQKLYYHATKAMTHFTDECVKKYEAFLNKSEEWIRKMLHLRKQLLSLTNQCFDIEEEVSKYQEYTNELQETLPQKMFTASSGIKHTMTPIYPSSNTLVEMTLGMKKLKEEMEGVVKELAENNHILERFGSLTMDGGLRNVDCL
Outline: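 TBK1 enzyme and substrate incubated with compounds (10-point 1:4 dilution, top 30 uM final, 1% DMSO) for 90 min at 25° C, then stopped. Substrate/product peaks read by microfluidic mobility-shift (Caliper LabChip); 10 uM staurosporine as full-inhibition control.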

IKKε = molecular target: T2, IKKε (Homo sapiens, UniProt Q14164); assay: IKKe Biochemical Assay; settings: read-out: IKKε IC50
T2 sequence (Q14164 1-716): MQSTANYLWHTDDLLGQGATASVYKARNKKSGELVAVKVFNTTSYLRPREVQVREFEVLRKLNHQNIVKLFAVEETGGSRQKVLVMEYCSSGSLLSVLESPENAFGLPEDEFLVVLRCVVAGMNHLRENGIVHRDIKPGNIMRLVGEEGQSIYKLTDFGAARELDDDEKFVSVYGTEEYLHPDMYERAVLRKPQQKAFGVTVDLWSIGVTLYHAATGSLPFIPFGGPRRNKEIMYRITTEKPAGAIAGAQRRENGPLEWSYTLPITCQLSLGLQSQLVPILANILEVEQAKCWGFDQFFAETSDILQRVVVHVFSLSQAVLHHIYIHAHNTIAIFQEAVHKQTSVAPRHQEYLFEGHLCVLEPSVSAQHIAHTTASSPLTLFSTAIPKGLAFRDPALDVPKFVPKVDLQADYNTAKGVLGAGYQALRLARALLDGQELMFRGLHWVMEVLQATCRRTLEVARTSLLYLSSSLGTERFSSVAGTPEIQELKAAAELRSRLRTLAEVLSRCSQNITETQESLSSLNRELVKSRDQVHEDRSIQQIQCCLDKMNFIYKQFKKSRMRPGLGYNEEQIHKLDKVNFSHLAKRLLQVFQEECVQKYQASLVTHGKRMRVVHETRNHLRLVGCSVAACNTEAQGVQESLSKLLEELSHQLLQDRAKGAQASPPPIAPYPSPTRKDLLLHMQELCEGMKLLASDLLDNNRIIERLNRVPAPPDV
Outline: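 Recombinant IKKε and substrate were incubated with compound (10-point 1:4 series, top 30 uM final, 1% DMSO) for 90 min at 25° C, then stopped. Substrate-to-product conversion was read by LabChip microfluidic mobility shift; 10 uM staurosporine served as full-inhibition wells.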

| Structure (SMILES) | IC50 (TBK1) | IC50 (IKKε) |
| --- | --- | --- |
| COc1cc(C(=O)N(C)C)ccc1-c1cc2nccc(-c3cc(F)c(N(C)C4CCOCC4)c(C#N)c3)c2o1 [Compound 237, 4-(7-(3-cyano-5-fluoro-4-(methyl(tetrahydro-2H-pyran-4-yl)amino)phenyl)furo[3,2-b]pyridin-2-yl)-3-methoxy-N,N-dimethylbenzamide] | < 0.1 µM | < 0.1 µM |
| CN(C)C(=O)c1ccc(-c2cc3nccc(-c4ccc(OC5CCOCC5)c(C#N)c4)c3o2)c(F)c1 [Compound 238, 4-(7-(3-cyano-4-(tetrahydro-2H-pyran-4-yloxy)phenyl)furo[3,2-b]pyridin-2-yl)-3-fluoro-N,N-dimethylbenzamide] | < 0.1 µM | < 0.1 µM |
| CN(C)C(=O)c1ccc(-c2cc3nccc(-c4ccc(OC5CCOCC5)c(C#N)c4)c3o2)c(Cl)c1 [Compound 239, 3-chloro-4-(7-(3-cyano-4-(tetrahydro-2H-pyran-4-yloxy)phenyl)furo[3,2-b]pyridin-2-yl)-N,N-dimethylbenzamide] | < 0.1 µM | < 0.1 µM |
| CN(C)C(=O)c1ccc(-c2cc3nccc(-c4ccc(OC5CCOCC5)c(C#N)c4)c3o2)c(C(F)(F)F)c1 [Compound 240, 4-(7-(3-cyano-4-(tetrahydro-2H-pyran-4-yloxy)phenyl)furo[3,2-b]pyridin-2-yl)-N,N-dimethyl-3-(trifluoromethyl)benzamide] | 0.1 to 1 µM | 0.1 to 1 µM |
| CN(C)C(=O)c1ccc(-c2cc3nccc(-c4ccc(OC5CCOCC5)c(C#N)c4)c3o2)nn1 [Compound 242, 6-(7-(3-cyano-4-(tetrahydro-2H-pyran-4-yloxy)phenyl)furo[3,2-b]pyridin-2-yl)-N,N-dimethylpyridazine-3-carboxamide hydrochloride] | 0.1 to 1 µM | 0.1 to 1 µM |
| CN(C)C(=O)c1ccc(-c2cc3nccc(-c4ccc(OC5CCOCC5)c(C#N)c4)c3o2)nc1 [Compound 243, 6-(7-(3-cyano-4-(tetrahydro-2H-pyran-4-yloxy)phenyl)furo[3,2-b]pyridin-2-yl)-N,N-dimethylnicotinamide] | < 0.1 µM | < 0.1 µM |
| CN(C)C(=O)c1ccc(-c2cc3nccc(-c4ccc(NC5CCOCC5)c(C#N)c4)c3o2)nc1 [Compound 244, 6-(7-(3-cyano-4-(tetrahydro-2H-pyran-4-ylamino)phenyl)furo[3,2-b]pyridin-2-yl)-N,N-dimethylnicotinamide] | 0.1 to 1 µM | 0.1 to 1 µM |
| CN(C)C(=O)c1ccc(-c2cc3nccc(-c4cc(F)c(OC5CCOCC5)c(C#N)c4)c3o2)nc1 [Compound 245, 6-(7-(3-cyano-5-fluoro-4-(tetrahydro-2H-pyran-4-yloxy)phenyl)furo[3,2-b]pyridin-2-yl)-N,N-dimethylnicotinamide hydrochloride] | 0.1 to 1 µM | 0.1 to 1 µM |
| CN(C)C(=O)c1ccc(-c2cc3nccc(-c4cc(F)c(NC5CCOCC5)c(C#N)c4)c3o2)nc1 [Compound 246] | 0.1 to 1 µM | 0.1 to 1 µM |
| CN(C)C(=O)c1ccc(-c2cc3nccc(-c4ccc(NC5CCOCC5)c(C#N)c4)c3o2)c(F)c1 [Compound 250, 4-(7-(3-cyano-4-(tetrahydro-2H-pyran-4-ylamino)phenyl)furo[3,2-b]pyridin-2-yl)-3-fluoro-N,N-dimethylbenzamide] | 0.1 to 1 µM | 0.1 to 1 µM |
| COc1cc(C(=O)N(C)C)cc(F)c1-c1cc2nccc(-c3ccc(NC4CCOCC4)c(C#N)c3)c2o1 [Compound 255, 4-(7-(3-cyano-4-(tetrahydro-2H-pyran-4-ylamino)phenyl)furo[3,2-b]pyridin-2-yl)-3-fluoro-5-methoxy-N,N-dimethylbenzamide] | < 0.1 µM | < 0.1 µM |
| CCN(C)C(=O)c1ccc(-c2cc3nccc(-c4ccc(NC5CCOCC5)c(C#N)c4)c3o2)c(OC)c1 [Compound 262, 4-(7-(3-cyano-4-(tetrahydro-2H-pyran-4-ylamino)phenyl)furo[3,2-b]pyridin-2-yl)-N-ethyl-3-methoxy-N-methylbenzamide] | < 0.1 µM | < 0.1 µM |
| CN(C)C(=O)c1ccc(-c2cc3nccc(-c4ccc(OC5CCOCC5)c(C#N)c4)c3o2)c(O)c1 [Compound 264, 4-(7-(3-cyano-4-(tetrahydro-2H-pyran-4-yloxy)phenyl)furo[3,2-b]pyridin-2-yl)-3-hydroxy-N,N-dimethylbenzamide] | < 0.1 µM | < 0.1 µM |

Second part, the compound after the results:

| IC50 (TBK1) | IC50 (IKKε) | Structure (SMILES) |
| --- | --- | --- |
| < 0.1 µM | < 0.1 µM | CN(C)C(=O)c1ccc(-c2cc3nccc(-c4ccc(OC5CCOCC5)c(C#N)c4)c3o2)c(OC(F)(F)F)c1 [Compound 241, 4-(7-(3-cyano-4-(tetrahydro-2H-pyran-4-yloxy)phenyl)furo[3,2-b]pyridin-2-yl)-N,N-dimethyl-3-(trifluoromethoxy)benzamide] |
| 0.1 to 1 µM | 0.1 to 1 µM | CN(C)C(=O)c1cnc(-c2cc3nccc(-c4cc(F)c(OC5CCOCC5)c(C#N)c4)c3o2)c(F)c1 [Compound 247, 6-(7-(3-cyano-5-fluoro-4-(tetrahydro-2H-pyran-4-yloxy)phenyl)furo[3,2-b]pyridin-2-yl)-5-fluoro-N,N-dimethylnicotinamide] |
| 0.1 to 1 µM | 0.1 to 1 µM | CN(C)C(=O)c1cnc(-c2cc3nccc(-c4ccc(NC5CCOCC5)c(C#N)c4)c3o2)c(F)c1 [Compound 249, 6-(7-(3-cyano-4-(tetrahydro-2H-pyran-4-ylamino)phenyl)furo[3,2-b]pyridin-2-yl)-5-fluoro-N,N-dimethylnicotinamide] |
| < 0.1 µM | < 0.1 µM | CCN(CC)C(=O)c1ccc(-c2cc3nccc(-c4ccc(OC5CCOCC5)c(C#N)c4)c3o2)c(OC)c1 [Compound 256, 4-(7-(3-cyano-4-(tetrahydro-2H-pyran-4-yloxy)phenyl)furo[3,2-b]pyridin-2-yl)-N,N-diethyl-3-methoxybenzamide hydrochloride] |
| < 0.1 µM | < 0.1 µM | CCCN(C)C(=O)c1ccc(-c2cc3nccc(-c4ccc(OC5CCOCC5)c(C#N)c4)c3o2)c(OC)c1 [Compound 257, 4-(7-(3-cyano-4-(tetrahydro-2H-pyran-4-yloxy)phenyl)furo[3,2-b]pyridin-2-yl)-3-methoxy-N-methyl-N-propylbenzamide hydrochloride] |
| < 0.1 µM | < 0.1 µM | COc1cc(C(=O)N(C)CCCO)ccc1-c1cc2nccc(-c3ccc(OC4CCOCC4)c(C#N)c3)c2o1 [Compound 258, 4-(7-(3-cyano-4-(tetrahydro-2H-pyran-4-yloxy)phenyl)furo[3,2-b]pyridin-2-yl)-N-(3-hydroxypropyl)-3-methoxy-N-methylbenzamide hydrochloride] |
| < 0.1 µM | < 0.1 µM | CCN(CC)C(=O)c1ccc(-c2cc3nccc(-c4ccc(NC5CCOCC5)c(C#N)c4)c3o2)c(OC)c1 [Compound 259, 4-(7-(3-cyano-4-(tetrahydro-2H-pyran-4-ylamino)phenyl)furo[3,2-b]pyridin-2-yl)-N,N-diethyl-3-methoxybenzamide] |
| < 0.1 µM | < 0.1 µM | COc1cc(C(=O)N(C)CC(F)F)ccc1-c1cc2nccc(-c3ccc(OC4CCOCC4)c(C#N)c3)c2o1 [Compound 260] |
| < 0.1 µM | < 0.1 µM | COc1cc(C(=O)N(C)CCCO)ccc1-c1cc2nccc(-c3ccc(NC4CCOCC4)c(C#N)c3)c2o1 [Compound 261, 4-(7-(3-cyano-4-(tetrahydro-2H-pyran-4-ylamino)phenyl)furo[3,2-b]pyridin-2-yl)-N-(3-hydroxypropyl)-3-methoxy-N-methylbenzamide] |
| < 0.1 µM | < 0.1 µM | CCc1cc(C(=O)N(C)C)ccc1-c1cc2nccc(-c3ccc(OC4CCOCC4)c(C#N)c3)c2o1 [Compound 263, 4-(7-(3-cyano-4-(tetrahydro-2H-pyran-4-yloxy)phenyl)furo[3,2-b]pyridin-2-yl)-3-ethyl-N,N-dimethylbenzamide] |
